Results on 10 compounds are retold here after ChEMBL document CHEMBL1201862, “PubChem BioAssay data set” (2004).

Test systems include M14; DU-145; NCI-H522; SF-295; SNB-75; HT-29; SN12C; OVCAR-3; ACHN; TK-10; NCI/ADR-RES; K562; EKVX; T47D; HOP-92; HL-60; SF-268; Malme-3M; MCF7; IGROV-1.
What all share (assay): DTP human tumour cell line panel, 48 h

Each structure is given as a SMILES string.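 Results reflect a 48-hour exposure of cells in 96-well plates to compound at five concentrations. GI50: concentration for 50% inhibition of growth.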 Activity calls are given as the source filed them. Cut-off read from the data, not from the text of the source: active = GI50 up to about 1.1 µM and inactive = higher. Some results are limits rather than exact numbers.

As for `COc1cc(N(C)C)ccc1C=c1c2ccccc2n2c1cc(-c1ccccc1)[n+]2C`, the 50% growth inhibitory concentration (GI50) was 0.411 µM (active) with M14; 0.323 µM (active) in the assay with DU-145; 0.169 µM (active) in the assay on NCI-H522; 0.336 µM (active) in the assay on SF-295; 0.33 µM (active) in the assay on SNB-75; 0.325 µM (active) in the assay with HT-29. Besides, the GI50 with SN12C was 0.296 µM (active); in the assay with OVCAR-3, 0.392 µM (active); in the assay with ACHN, 0.29 µM (active); in the assay on TK-10, 0.575 µM (active); in the assay on NCI/ADR-RES, 6.47 µM (inactive); with K562 it was 0.177 µM (active). In addition, the 50% growth inhibitory concentration (GI50) in the assay with EKVX was 0.575 µM (active); in the assay with T47D, 0.266 µM (active); in the assay with HOP-92, 0.319 µM (active); in the assay on HL-60, 0.149 µM (active); in the assay with SF-268, 0.495 µM (active); with Malme-3M, 1.02 µM (active). Further, the 50% growth inhibitory concentration (GI50) in the assay with MCF7 was 0.302 µM (active).
For `N=C(N)Nc1ccc(-c2ccc(NC(=N)N)cc2)cc1`, the GI50 in the assay on M14 was 36.1 µM (inactive); in the assay with DU-145 it was 25.9 µM (inactive); with NCI-H522 it was 32.2 µM (inactive); in the assay on SF-295, 17.8 µM (inactive); in the assay on SNB-75 it was 9.12 µM (inactive); in the assay with HT-29, 45.5 µM (inactive). Further, the GI50 with SN12C was 12.4 µM (inactive); with OVCAR-3, 22 µM (inactive); with IGROV-1 it was 20.2 µM (inactive); in the assay on ACHN it was 45.3 µM (inactive); in the assay with TK-10, 14.3 µM (inactive); in the assay on NCI/ADR-RES, 42.5 µM (inactive). For the same compound, the GI50 in the assay with K562 is 35.4 µM (inactive); in the assay on EKVX, 40.3 µM (inactive); in the assay on T47D, 44.4 µM (inactive); in the assay on HOP-92, 45 µM (inactive); in the assay on HL-60, 40.9 µM (inactive); in the assay on SF-268, 37.3 µM (inactive). The results for the GI50 with Malme-3M and with MCF7 were 19 µM (inactive) and 39.2 µM (inactive), respectively.
Consider `Cc1cc(C)c2c(=N)c3ccccc3n(CCCCCCO)c2n1`, for which the GI50 with M14 was 4.22 µM (inactive); in the assay on DU-145, 5.48 µM (inactive); in the assay on NCI-H522, 1.44 µM (inactive); with SF-295 it was 3.36 µM (inactive); with SNB-75 it was 1.88 µM (inactive); with HT-29, 1.03 µM (active). Moreover, the GI50 was 1.95 µM (inactive) in the assay with SN12C; 6.55 µM (inactive) in the assay with OVCAR-3; 2.09 µM (inactive) with IGROV-1; 1.36 µM (inactive) in the assay with ACHN; 3.15 µM (inactive) in the assay with TK-10; 2.31 µM (inactive) with NCI/ADR-RES. In addition, the GI50 was 2.82 µM (inactive) in the assay with EKVX; 2.94 µM (inactive) with T47D; 4.26 µM (inactive) in the assay with HOP-92; 2.9 µM (inactive) in the assay with HL-60; 3.62 µM (inactive) with SF-268; 2.63 µM (inactive) in the assay on Malme-3M. Besides, the GI50 with MCF7 is 2.11 µM (inactive).
Turning to `COc1ccc2c(c1)c(CC(=O)O)c(C)n2C(=O)c1ccc(Cl)cc1`, the GI50 in the assay on M14 is > 100 µM (inactive); in the assay on DU-145, > 100 µM (inactive); in the assay on NCI-H522, 77.1 µM (inactive); in the assay with SF-295 it was > 100 µM (inactive); in the assay with SNB-75, 39.9 µM (inactive); in the assay with HT-29, > 100 µM (inactive). Besides, the GI50 in the assay on SN12C is > 100 µM (inactive); in the assay with OVCAR-3 it was 56.6 µM (inactive); in the assay on IGROV-1, > 100 µM (inactive); in the assay on ACHN, > 100 µM (inactive); in the assay on TK-10, 36.6 µM (inactive); in the assay with NCI/ADR-RES it was > 100 µM (inactive). The GI50 with K562 is 13.7 µM (inactive); in the assay on EKVX, > 100 µM (inactive); with T47D it was 52.6 µM (inactive); with HOP-92, 4.42 µM (inactive); with HL-60, 44.3 µM (inactive); with SF-268, > 100 µM (inactive). Also, the figures for the GI50 in the assay with Malme-3M and in the assay with MCF7 were 68.7 µM (inactive) and 87.7 µM (inactive), respectively.
Take `COC1CC(C)([N+](=O)[O-])C(O)C(C)O1` (stereo unspecified): the GI50 in the assay on M14, in the assay on DU-145, in the assay on NCI-H522, in the assay on SF-295, in the assay with SNB-75 and in the assay with HT-29 was > 100 µM (inactive) each time. The GI50 with SN12C, with OVCAR-3, with IGROV-1, in the assay with ACHN, with TK-10 and with NCI/ADR-RES was > 100 µM (inactive) in each case. Moreover, the GI50 in the assay on K562, in the assay on EKVX, in the assay on T47D, with HOP-92, with HL-60 and in the assay with SF-268 was > 100 µM (inactive) each time. For the same compound, the GI50 in the assay with Malme-3M and in the assay with MCF7 was > 100 µM (inactive) in each case.
`COc1ccc(NC(=O)CC(=O)NNC(Sc2ccccc2)c2cc(/N=N/c3ccc(Br)cc3)ccc2O)cc1` (stereo unspecified): the GI50 is > 10 µM (inactive) with M14; > 10 µM (inactive) in the assay on DU-145; > 10 µM (inactive) in the assay on NCI-H522; > 10 µM (inactive) in the assay on SF-295; 5.52 µM (inactive) in the assay on SNB-75; > 10 µM (inactive) in the assay with HT-29. Further, the GI50 in the assay on SN12C is 7.52 µM (inactive); with OVCAR-3, 2.21 µM (inactive); in the assay with IGROV-1 it was > 10 µM (inactive); in the assay on ACHN, > 10 µM (inactive); in the assay with TK-10, > 10 µM (inactive); in the assay with NCI/ADR-RES it was > 10 µM (inactive). For the same compound, the GI50 in the assay on K562 is > 10 µM (inactive); in the assay on EKVX, > 10 µM (inactive); in the assay on T47D it was > 10 µM (inactive); with HOP-92, > 10 µM (inactive); in the assay with HL-60 it was 3.61 µM (inactive); in the assay with SF-268, > 10 µM (inactive). Also, the GI50 with Malme-3M and in the assay with MCF7 was > 10 µM (inactive) throughout.
With `Nc1nc(N)c2ncn(Cc3ccccc3CCl)c2n1`, the GI50 with M14, in the assay on DU-145, in the assay on NCI-H522, with SF-295, with SNB-75 and in the assay on HT-29 was > 100 µM (inactive) each time. The GI50 in the assay on SN12C, in the assay with OVCAR-3, in the assay with IGROV-1, in the assay with ACHN, with TK-10 and with NCI/ADR-RES was > 100 µM (inactive) throughout. The GI50 is 50.4 µM (inactive) with K562; > 100 µM (inactive) in the assay with EKVX; > 100 µM (inactive) in the assay on T47D; > 100 µM (inactive) with HOP-92; 0.115 µM (active) in the assay on HL-60; > 100 µM (inactive) with SF-268. Also, the GI50 in the assay with Malme-3M and in the assay with MCF7 was > 100 µM (inactive) each time.
In the case of `O=c1c2cc(Cl)ccc2[nH]c2cc(O)cc(O)c12`, the GI50 was > 10 µM (inactive) with M14; > 10 µM (inactive) with DU-145; > 10 µM (inactive) in the assay with NCI-H522; > 10 µM (inactive) in the assay with SF-295; 2.95 µM (inactive) in the assay on SNB-75; > 10 µM (inactive) with HT-29. Also, the GI50 in the assay on SN12C is > 10 µM (inactive); in the assay with OVCAR-3, 8.55 µM (inactive); with IGROV-1, > 10 µM (inactive); in the assay with ACHN it was > 10 µM (inactive); in the assay with TK-10, > 10 µM (inactive); in the assay with NCI/ADR-RES, > 10 µM (inactive). Further, the GI50 is > 10 µM (inactive) with K562; 4.12 µM (inactive) with EKVX; > 10 µM (inactive) with T47D; > 10 µM (inactive) with HOP-92; > 10 µM (inactive) with HL-60; > 10 µM (inactive) with SF-268. In addition, the GI50 in the assay with Malme-3M and in the assay with MCF7 was > 10 µM (inactive) throughout.
As for `CCN(CC)C(=S)N/N=C/c1ccccn1`, the GI50 in the assay with M14 was 0.0324 µM (active); in the assay on DU-145, 0.154 µM (active); in the assay with NCI-H522, < 0.01 µM (active); in the assay with SF-295, < 0.0483 µM (active); in the assay on SNB-75, 0.624 µM (active); with HT-29 it was < 0.01 µM (active). The GI50 in the assay on SN12C was 0.0212 µM (active); in the assay on OVCAR-3, < 0.01 µM (active); in the assay with IGROV-1, < 0.01 µM (active); with ACHN, < 0.0172 µM (active); with NCI/ADR-RES it was < 0.01 µM (active); in the assay with K562, < 0.01 µM (active). Further, the GI50 in the assay on EKVX is < 0.01 µM (active); in the assay on T47D, < 0.01 µM (active); with HOP-92, 0.113 µM (active); in the assay on HL-60 it was < 0.0149 µM (active); in the assay on SF-268, < 0.0177 µM (active); in the assay with Malme-3M, 0.0205 µM (active). In the assay with MCF7, the GI50 is < 0.01 µM (active).
In the case of `C/C(=N\Nc1nc2ccccc2n1C)c1ccc2ccccc2n1`, the GI50 in the assay on M14 was 1.02 µM (active); in the assay on DU-145, 3.86 µM (inactive); in the assay with NCI-H522, 0.416 µM (active); with SF-295 it was 2.21 µM (inactive); in the assay on SNB-75 it was 7.24 µM (inactive); in the assay on HT-29, 0.0861 µM (active). The GI50 in the assay with SN12C is 1.82 µM (inactive); in the assay on OVCAR-3, 0.0489 µM (active); in the assay on IGROV-1, 0.016 µM (active); with TK-10 it was 2.53 µM (inactive); in the assay on NCI/ADR-RES it was 1.63 µM (inactive); in the assay on K562 it was 2.07 µM (inactive). Besides, the GI50 in the assay on EKVX was 0.144 µM (active); in the assay on T47D, < 0.01 µM (active); in the assay on HOP-92, 2.48 µM (inactive); with HL-60 it was 0.774 µM (active); in the assay with SF-268, 2.87 µM (inactive); in the assay on Malme-3M, 1.59 µM (inactive). Also, the GI50 with MCF7 was 0.406 µM (active).
